Data: publication PMC6586847, “ATP binds and inhibits the neurodegeneration-associated fibrillization of the FUS RRM domain” (Communications Biology, 2019)

Target: T1, FUS RRM domain (Homo sapiens, UniProt P35637)
T1 construct: RRM domain (285–370)
T1 sequence (P35637 284-371 limits assumed): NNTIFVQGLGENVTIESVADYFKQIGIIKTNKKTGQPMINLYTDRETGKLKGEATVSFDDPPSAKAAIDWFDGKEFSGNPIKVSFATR
Assay: 1H-15N HSQC NMR titration, one-site fit of chemical shift differences
Format: binding

SMILES	Kd
Nc1ncnc2c1ncn2[C@@H]1O[C@H](COP(=O)(O)OP(=O)(O)OP(=O)(O)O)[C@@H](O)[C@H]1O [ATP]	3.77 ± 0.49 mM
Nc1ncnc2c1ncn2[C@@H]1O[C@H](COP(=O)(O)O)[C@@H](O)[C@H]1O [AMP]	17.2 ± 2.61 mM
O=P(O)(O)OP(=O)(O)OP(=O)(O)O [PPP]	12.6 ± 3.53 mM
